target: Endothelial lipase (EL) (Homo sapiens (Human), UniProt Q9Y5X9); test: Endothelial lipase (EL) enzymatic assay with fluorescent substrate A10070 in DMPG vesicles; type: biochemical
Summary of the method: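 Vesicles prepared: A10070 dried with DMPG, resuspended in HEPES pH 8.0/NaCl/EDTA, sonicated on ice. Enzyme incubated with compound 30 min at 37° C. Reaction started with 1:10 diluted vesicles. Fluorescence (490/530 nm) followed 60 min; slope from 300–900 secs gives rate.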

Chain of Endothelial lipase (EL) (Q9Y5X9 21-500): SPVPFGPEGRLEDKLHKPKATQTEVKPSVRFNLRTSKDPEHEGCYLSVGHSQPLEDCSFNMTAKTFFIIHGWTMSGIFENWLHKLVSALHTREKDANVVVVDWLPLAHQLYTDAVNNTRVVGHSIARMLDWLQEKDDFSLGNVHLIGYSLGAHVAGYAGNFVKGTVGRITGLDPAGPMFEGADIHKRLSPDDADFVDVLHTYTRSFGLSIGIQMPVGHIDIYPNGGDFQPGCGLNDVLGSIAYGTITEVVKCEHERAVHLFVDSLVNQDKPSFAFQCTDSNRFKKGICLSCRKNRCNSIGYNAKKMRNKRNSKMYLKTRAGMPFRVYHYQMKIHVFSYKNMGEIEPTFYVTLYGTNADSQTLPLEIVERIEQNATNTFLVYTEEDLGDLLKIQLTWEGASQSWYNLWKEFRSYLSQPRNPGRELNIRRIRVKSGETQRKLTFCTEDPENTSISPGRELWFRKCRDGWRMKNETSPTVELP

SMILES	IC50
COCCS(=O)(=O)C(C(=O)NCC(=O)NC1CC1)c1nc2cc(C(F)(F)F)c(-c3ccn(C)c(=O)c3)cc2s1 (stereo not shown) [Example 176, N-[(cyclopropyl-carbamoyl)methyl]-2-(2-methoxyethane-sulfonyl)-2-[6-(1-methyl-2-oxo-1,2-dihydropyridin-4-yl)-5-(trifluoromethyl)-1,3-benzothiazol-2-yl]acetamide]	37 nM
COCCS(=O)(=O)C(C(=O)NCC(=O)NC1CC1)c1nc2cc(F)c(-c3cccc(C(=O)N(C)C)c3)cc2s1 (stereo not shown) [Example 177, 3-[2-({[(cyclopropyl-carbamoyl)methyl]carbamoyl}(2-methoxyethane-sulfonyl)methyl)-5-fluoro-1,3-benzothiazol-6-yl]-N,N-dimethyl-benzamide]	51 nM
COCCS(=O)(=O)C(C(=O)NCC(=O)NC1CC1)c1nc2cc(C(F)(F)F)c(-c3cnc(C)nc3)cc2s1 (stereo not shown) [Example 178, N-[(cyclopropyl-carbamoyl)methyl]-2-(2-methoxyethane-sulfonyl)-2-[6-(2-methylpyrimidin-5-yl)-5-(trifluoromethyl)-1,3-benzothiazol-2-yl]acetamide]	56 nM
CC(C)S(=O)(=O)C(C(=O)NCC(=O)NC1CC1)c1nc2cc(C(F)(F)F)c(Br)cc2s1 (stereo not shown) [Example 179, 2-[6-bromo-5-(trifluoromethyl)-1,3-benzothiazol-2-yl]-N-[(cyclopropyl-carbamoyl)methyl]-2-(propane-2-sulfonyl) acetamide]	82 nM
CC(C)S(=O)(=O)C(C(=O)NCC(=O)NC1CC1)c1nc2cc(C(F)(F)F)c(-c3ccnn3C)cc2s1 (stereo not shown) [Example 180, N-[(cyclopropyl-carbamoyl)methyl]-2-[6-(1-methyl-1H-pyrazol-5-yl)-5-(trifluoromethyl)-1,3-benzothiazol-2-yl]-2-(propane-2-sulfonyl) acetamide]	88 nM
COCCS(=O)(=O)C(C(=O)NCC(=O)NC1CC1)c1nc2cc(F)c(-c3cccc(F)n3)cc2s1 (stereo not shown) [Example 181, N-[(cyclopropyl-carbamoyl)methyl]-2-[5-fluoro-6-(6-fluoropyridin-2-yl)-1,3-benzothiazol-2-yl]-2-(2-methoxyethane-sulfonyl) acetamide]	143 nM
COCCS(=O)(=O)C(C(=O)NCC(=O)NC1CC1)c1nc2cc(-c3ccc(F)nc3)c(C)cc2s1 (stereo not shown) [Example 182, N-[(cyclopropyl-carbamoyl)methyl]-2-[5-(6-fluoropyridin-3-yl)-6-methyl-1,3-benzothiazol-2-yl]-2-(2-methoxyethane-sulfonyl) acetamide]	21 nM
COCCS(=O)(=O)C(C(=O)NCC(=O)NC1CC1)c1nc2cc(-c3cncnc3)c(C)cc2s1 (stereo not shown) [Example 183, N-[(cyclopropyl-carbamoyl)methyl]-2-(2-methoxyethane-sulfonyl)-2-[6-methyl-5-(pyrimidin-5-yl)-1,3-benzothiazol-2-yl]acetamide]	39 nM
COCCS(=O)(=O)C(C(=O)NCC(=O)NC1CC1)c1nc2cc(-c3cnc(C)nc3)c(C)cc2s1 (stereo not shown) [Example 184, N-[(cyclopropyl-carbamoyl)methyl]-2-(2-methoxyethane-sulfonyl)-2-[6-methyl-5-(2-methylpyrimidin-5-yl)-1,3-benzothiazol-2-yl]acetamide]	29 nM
COCCS(=O)(=O)C(C(=O)NCC(=O)NC1CC1)c1nc2cc(C)c(-c3ccc(F)nc3)cc2s1 (stereo not shown) [Example 185, N-[(cyclopropyl-carbamoyl)methyl]-2-[6-(6-fluoropyridin-3-yl)-5-methyl-1,3-benzothiazol-2-yl]-2-(2-methoxyethane-sulfonyl) acetamide]	4 nM
COCCS(=O)(=O)C(C(=O)NCC(=O)NC1CC1)c1nc2cc(C)c(-c3cnnc(C)c3)cc2s1 (stereo not shown) [Example 186, N-[(cyclopropyl-carbamoyl)methyl]-2-(2-methoxyethane-sulfonyl)-2-[5-methyl-6-(6-methylpyridazin-4-yl)-1,3-benzothiazol-2-yl]acetamide]	40 nM
COCCS(=O)(=O)C(C(=O)NCC(=O)NC1CC1)c1nc2cc(C(F)(F)F)c(-c3cnnc(C)c3)cc2s1 (stereo not shown) [Example 187, N-[(cyclopropyl-carbamoyl)methyl]-2-(2-methoxyethane-sulfonyl)-2-[6-(6-methylpyridazin-4-yl)-5-(trifluoromethyl)-1,3-benzothiazol-2-yl]acetamide]	229 nM
COCCS(=O)(=O)C(C(=O)NCC(=O)NC1CC1)c1nc2cc(C(F)(F)F)c(-c3ccc(=O)n(C(C)C)c3)cc2s1 (stereo not shown) [Example 188, N-[(cyclopropyl-carbamoyl)methyl]-2-(2-methoxyethane-sulfonyl)-2-{6-[6-oxo-1-(propan-2-yl)-1,6-dihydropyridin-3-yl]-5-(trifluoromethyl)-1,3-benzothiazol-2-yl}acetamide]	37 nM
COCCS(=O)(=O)C(C(=O)NCC(=O)NC1CC1)c1nc2cc(C)c(-c3ccc4c(=O)n(C)ccc4c3)cc2s1 (stereo not shown) [Example 189, N-[(cyclopropyl-carbamoyl)methyl]-2-(2-methoxyethane-sulfonyl)-2-[5-methyl-6-(2-methyl-1-oxo-1,2-dihydro-isoquinolin-6-yl)-1,3-benzothiazol-2-yl]acetamide]	4 nM
CS(=O)(=O)C(C(=O)NCC(=O)NC1CC1)c1nc2cc(F)c(-c3ccc(F)nc3)cc2s1 (stereo not shown) [Example 190, N-[(cyclopropyl-carbamoyl)methyl]-2-[5-fluoro-6-(6-fluoropyridin-3-yl)-1,3-benzothiazol-2-yl]-2-methanesulfonyl-acetamide]	16 nM
Cc1ccc(-c2cc3sc(C(C(=O)NCC(=O)NC4CC4)S(C)(=O)=O)nc3cc2F)cn1 (stereo not shown) [Example 191, N-[(cyclopropyl-carbamoyl)methyl]-2-[5-fluoro-6-(6-methylpyridin-3-yl)-1,3-benzothiazol-2-yl]-2-methanesulfonyl-acetamide]	9 nM
CS(=O)(=O)C(C(=O)NCC(=O)NC1CC1)c1nc2cc(F)c(-c3cnc(C4CC4)nc3)cc2s1 (stereo not shown) [Example 192, N-[(cyclopropyl-carbamoyl)methyl]-2-[6-(2-cyclopropyl-pyrimidin-5-yl)-5-fluoro-1,3-benzothiazol-2-yl]-2-methanesulfonyl-acetamide]	25 nM
Cn1ccc2cc(-c3cc4sc(C(C(=O)NCC(=O)NC5CC5)S(C)(=O)=O)nc4cc3F)ccc2c1=O (stereo not shown) [Example 193, N-[(cyclopropyl-carbamoyl)methyl]-2-[5-fluoro-6-(2-methyl-1-oxo-1,2-dihydro-isoquinolin-6-yl)-1,3-benzothiazol-2-yl]-2-methanesulfonyl-acetamide]	5 nM
Cc1ncc(-c2cc3sc(C(C(=O)NCC(=O)NC4CC4)S(C)(=O)=O)nc3cc2F)cn1 (stereo not shown) [Example 194, N-[(cyclopropyl-carbamoyl)methyl]-2-[5-fluoro-6-(2-methylpyrimidin-5-yl)-1,3-benzothiazol-2-yl]-2-methanesulfonyl-acetamide]	34 nM
CC(C)n1cc(-c2cc3sc(C(C(=O)NCC(=O)NC4CC4)S(C)(=O)=O)nc3cc2F)ccc1=O (stereo not shown) [Example 195, N-[(cyclopropyl-carbamoyl)methyl]-2-{5-fluoro-6-[6-oxo-1-(propan-2-yl)-1,6-dihydropyridin-3-yl]-1,3-benzothiazol-2-yl}-2-methanesulfonyl-acetamide]	23 nM
Cn1ncc2ccc(-c3cc4sc(C(C(=O)NCC(=O)NC5CC5)S(C)(=O)=O)nc4cc3F)cc21 (stereo not shown) [Example 196, N-[(cyclopropyl-carbamoyl)methyl]-2-[5-fluoro-6-(1-methyl-1H-indazol-6-yl)-1,3-benzothiazol-2-yl]-2-methanesulfonyl-acetamide]	1 nM
CS(=O)(=O)C(C(=O)NCC(=O)NC1CC1)c1nc2cc(F)c(-c3ccc4[nH]c(=O)ccc4c3)cc2s1 (stereo not shown) [Example 197, N-[(cyclopropyl-carbamoyl)methyl]-2-[5-fluoro-6-(2-oxo-1,2-dihydroquinolin-6-yl)-1,3-benzothiazol-2-yl]-2-methanesulfonyl-acetamide]	3 nM
COCCS(=O)(=O)C(C(=O)NCC(=O)NC1CC1)c1nc2cc(F)c(-c3ccc4cnn(C)c4c3)cc2s1 (stereo not shown) [Example 198, N-[(cyclopropyl-carbamoyl)methyl]-2-[5-fluoro-6-(1-methyl-1H-indazol-6-yl)-1,3-benzothiazol-2-yl]-2-(2-methoxyethane-sulfonyl) acetamide]	5 nM
CS(=O)(=O)C(C(=O)NCC(=O)NC1CC1)c1nc2cc(F)c(-c3ccc(C#N)nc3)cc2s1 (stereo not shown) [Example 199, 2-[6-(6-cyanopyridin-3-yl)-5-fluoro-1,3-benzothiazol-2-yl]-N-[(cyclopropyl-carbamoyl)methyl]-2-methanesulfonyl-acetamide]	24 nM
CS(=O)(=O)C(C(=O)NCC(=O)NC1CC1)c1nc2cc(F)c(-c3ccc(-n4ccccc4=O)cc3)cc2s1 (stereo not shown) [Example 200, N-[(cyclopropyl-carbamoyl)methyl]-2-{5-fluoro-6-[4-(2-oxo-1,2-dihydropyridin-1-yl)phenyl]-1,3-benzothiazol-2-yl}-2-methanesulfonyl-acetamide]	8 nM
CS(=O)(=O)C(C(=O)NCC(=O)NC1CC1)c1nc2cc(F)c(-c3ccc(N4CCCCC4=O)cc3)cc2s1 (stereo not shown) [Example 201, N-[(cyclopropyl-carbamoyl)methyl]-2-{5-fluoro-6-[4-(2-oxopiperidin-1-yl)phenyl]-1,3-benzothiazol-2-yl}-2-methanesulfonyl-acetamide]	10 nM
CS(=O)(=O)C(C(=O)NCC(=O)NC1CC1)c1nc2cc(F)c(-c3cnc(-c4ccccc4)nc3)cc2s1 (stereo not shown) [Example 202, N-[(cyclopropyl-carbamoyl)methyl]-2-[5-fluoro-6-(2-phenylpyrimidin-5-yl)-1,3-benzothiazol-2-yl]-2-methanesulfonyl-acetamide]	5 nM
CS(=O)(=O)C(C(=O)NCC(=O)NC1CC1)c1nc2cc(F)c(-c3ccc(-c4ccccc4)nc3)cc2s1 (stereo not shown) [Example 203, N-[(cyclopropyl-carbamoyl)methyl]-2-[5-fluoro-6-(6-phenylpyridin-3-yl)-1,3-benzothiazol-2-yl]-2-methanesulfonyl-acetamide]	3 nM

Reference: US10173991B2, “Sulfone amide linked benzothiazole inhibitors of endothelial lipase” (BRISTOL-MYERS SQUIBB COMPANY, priority 2014, dated 2019)
